Assay results from US20240415804A1, “METHOD OF TREATING PANCREATIC CANCER” (University of South Florida, priority 2022, published 2024).

Tests used:
Bcl-2 = assay: Western blot of Bcl-2 protein in UN-KC-6141 cells; assay type: cell-based, mouse; conditions: API 40 μM
Experimental: Single-cell suspensions of BM, digested pancreatic tumors cells and UN-KC-6141 cells treated with API (40 μM) were lysed with radioimmunoprecipitation buffer (Sigma-Aldrich), quantified with a BCA Protein Assay kit (Thermo Fisher Scientific, Waltham, MA, USA), resolved by SDS-PAGE (Thermo Fisher Scientific) and transferred onto a nitrocellulose membrane as previously described. Membranes were probed with either anti-SHIP-1 (Santa Cruz Biotechnology, Dallas, TX, USA), anti-iNOS (Cell Signaling Technology) or anti-Bcl-2 (Cell Signaling Technology, Danvers, MA, USA), all at a dilution of 1:1000. All blots were re-probed with a housekeeping protein, HRP-conjugated anti-β-actin (Sigma-Aldrich), at a dilution of 1:20,000. Membranes were then probed with the respective secondary anti-mouse or rabbit IgG HRP-conjugated antibodies (1:1000) of SHIP-1 and iNOS. Detection of SHIP-1, iNOS and β-actin proteins was performed using Super Signal West Pico or Femto Chemiluminescent Substrates (Thermo Fisher Scientific) and then imaged on a Bio-Rad Chemi Doc XRS Imaging System. Normalized densitometric ratios (divided by β-actin) were determined by quantifying WB results using Image J.

miR-155 = miR-155 gene expression by RT-qPCR in Panc02 cells; assay type: cell-based, mouse; conditions: API 40 μM, 24 h, vs DMSO vehicle
Experimental: MiR-155 is known to be overexpressed in different cancers, including PC^21, 23. The inventors first assessed whether apigenin could modulate the expression of miR-155 in PC cells. Murine PC cell lines Panc02 and UN-KC-6141 as well as the human PC cell line MiaPaCa-2 were treated with API (40 μM) or DMSO vehicle for 24 h and the expression of miR-155 was examined using RT-qPCR assay. […] Since API is known to inhibit the growth of cancer cells, including PC cells^39-43, 47-50, the same PC cell lines were treated with API (40 μM) or DMSO (vehicle) for 24 h and examined cell viability using MTT assay. […] Moreover, Panc02 and UN-KC-6141 cells were then treated with API at a dose dependent concentration (10, 20, 30, 40, 50 μM) and detected apoptosis using flow cytometry (Annexin V and PI).
miR-155 is implicated in the development of pancreatic tumors from pancreatic intraepithelial neoplasia (PanIN) lesions, and is overexpressed in PC^23. The inventors examined whether the depletion of miR-155 modulated PC viability. Murine and human PC cell lines were transfected with miR-155 inhibitor (i.e., MMU-MIR-155-5P/HSA-MIR-155-5P) and scrambled miRNA at a concentration of 100 nM for 24 h and cell viability determined using an MTT assay. The expression of miR-155 was examined using an RT-qPCR assay as well. […]

## O=c1cc(-c2ccc(O)cc2)oc2cc(O)cc(O)c12 [API, 40,5,7-Trihydroxyflavone, 5,7-Dihydroxy-2-(4-hydroxyphenyl)-4-benzopyrone]
Bcl-2
  Bcl-2 protein expression (WB): significant decrease
miR-155
  miR-155 gene expression: significantly suppressed
